Reference: ChEMBL document CHEMBL1201862, “PubChem BioAssay data set” (2004)
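Method: 48-hour compound exposure of cells in 96-well plates, five concentrations, linear interpolation of endpoints. At the GI50, growth is halved.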 The source made the active and inactive calls. No stated cut-off is given here; in the data, active = GI50 up to about 1.1 µM and inactive = higher.

Legend:
Assay in all cases: NCI-60 cell line screen, 48 h
786-0 = tested on: 786-0
A498 = tested on: A498
A549 = tested on: A549
ACHN = tested on: ACHN
BT-549 = tested on: BT-549
CAKI-1 = tested on: CAKI-1
CCRF-CEM = tested on: CCRF-CEM
COLO 205 = tested on: COLO 205
DU-145 = tested on: DU-145
EKVX = tested on: EKVX
HCC 2998 = tested on: HCC 2998
HCT-116 = tested on: HCT-116
HCT-15 = tested on: HCT-15
HL-60 = tested on: HL-60
HOP-62 = tested on: HOP-62
HOP-92 = tested on: HOP-92
HT-29 = tested on: HT-29
Hs-578T = tested on: Hs-578T
IGROV-1 = tested on: IGROV-1
K562 = tested on: K562
KM12 = tested on: KM12
LOX IMVI = tested on: LOX IMVI
M14 = tested on: M14
MCF7 = tested on: MCF7
MDA-MB-231 = tested on: MDA-MB-231
MDA-MB-435 = tested on: MDA-MB-435
MDA-N = tested on: MDA-N
MOLT-4 = tested on: MOLT-4
Malme-3M = tested on: Malme-3M
NCI-H226 = tested on: NCI-H226
NCI-H23 = tested on: NCI-H23
NCI-H460 = tested on: NCI-H460
NCI-H522 = tested on: NCI-H522
NCI/ADR-RES = tested on: NCI/ADR-RES
OVCAR-3 = tested on: OVCAR-3
OVCAR-4 = tested on: OVCAR-4
OVCAR-5 = tested on: OVCAR-5
OVCAR-8 = tested on: OVCAR-8
PC-3 = tested on: PC-3
RPMI-8226 = tested on: RPMI-8226
RXF 393 = tested on: RXF 393
SF-268 = tested on: SF-268
SF-295 = tested on: SF-295
SF-539 = tested on: SF-539
SK-MEL-28 = tested on: SK-MEL-28
SK-MEL-2 = tested on: SK-MEL-2
SK-MEL-5 = tested on: SK-MEL-5
SK-OV-3 = tested on: SK-OV-3
SN12C = tested on: SN12C
SNB-19 = tested on: SNB-19
SNB-75 = tested on: SNB-75
SR = tested on: SR
SW-620 = tested on: SW-620
T47D = tested on: T47D
TK-10 = tested on: TK-10
U-251 = tested on: U-251
UACC-257 = tested on: UACC-257
UACC-62 = tested on: UACC-62
UO-31 = tested on: UO-31

CN(C)c1ccc(/C=C2/SC(=S)NC2=O)cc1
GI50 (786-0): > 100 µM (inactive)
GI50 (A498): > 100 µM (inactive)
GI50 (A549): > 100 µM (inactive)
GI50 (ACHN): > 100 µM (inactive)
GI50 (BT-549): > 100 µM (inactive)
GI50 (CAKI-1): > 100 µM (inactive)
GI50 (CCRF-CEM): > 100 µM (inactive)
GI50 (COLO 205): > 100 µM (inactive)
GI50 (DU-145): > 100 µM (inactive)
GI50 (EKVX): > 100 µM (inactive)
GI50 (HCC 2998): > 100 µM (inactive)
GI50 (HCT-116): 33.2 µM (inactive)
GI50 (HCT-15): > 100 µM
GI50 (HL-60): > 100 µM (inactive)
GI50 (HOP-62): 52.2 µM (inactive)
GI50 (HOP-92): > 100 µM (inactive)
GI50 (HT-29): > 100 µM (inactive)
GI50 (Hs-578T): > 100 µM (inactive)
GI50 (IGROV-1): > 100 µM (inactive)
GI50 (K562): > 100 µM (inactive)
GI50 (KM12): 50.7 µM (inactive)
GI50 (LOX IMVI): > 100 µM (inactive)
GI50 (M14): > 100 µM (inactive)
GI50 (MCF7): > 100 µM (inactive)
GI50 (MDA-MB-231): 90.8 µM (inactive)
GI50 (MDA-MB-435): > 100 µM (inactive)
GI50 (MDA-N): > 100 µM (inactive)
GI50 (MOLT-4): > 100 µM (inactive)
GI50 (Malme-3M): > 100 µM (inactive)
GI50 (NCI-H226): > 100 µM (inactive)
GI50 (NCI-H23): > 100 µM (inactive)
GI50 (NCI-H460): > 100 µM (inactive)
GI50 (NCI-H522): > 100 µM (inactive)
GI50 (NCI/ADR-RES): > 100 µM (inactive)
GI50 (OVCAR-3): > 100 µM (inactive)
GI50 (OVCAR-4): > 100 µM (inactive)
GI50 (OVCAR-5): 21.9 µM (inactive)
GI50 (OVCAR-8): > 100 µM (inactive)
GI50 (PC-3): > 100 µM (inactive)
GI50 (RPMI-8226): > 100 µM (inactive)
GI50 (RXF 393): > 100 µM (inactive)
GI50 (SF-268): > 100 µM (inactive)
GI50 (SF-295): > 100 µM (inactive)
GI50 (SF-539): > 100 µM (inactive)
GI50 (SK-MEL-28): > 100 µM (inactive)
GI50 (SK-MEL-2): > 100 µM (inactive)
GI50 (SK-MEL-5): > 100 µM (inactive)
GI50 (SK-OV-3): 29.1 µM (inactive)
GI50 (SN12C): > 100 µM (inactive)
GI50 (SNB-19): > 100 µM (inactive)
GI50 (SNB-75): 95.3 µM (inactive)
GI50 (SR): > 100 µM (inactive)
GI50 (SW-620): > 100 µM (inactive)
GI50 (T47D): > 100 µM (inactive)
GI50 (TK-10): 21.2 µM (inactive)
GI50 (U-251): 61.7 µM (inactive)
GI50 (UACC-257): > 100 µM (inactive)
GI50 (UACC-62): > 100 µM (inactive)
GI50 (UO-31): > 100 µM (inactive)

FC(F)(F)c1cccc(-c2nc3nc(Cl)c(Cl)nc3[nH]2)c1
GI50 (786-0): 3.77 µM (inactive)
GI50 (A498): 1.75 µM (inactive)
GI50 (A549): 2 µM (inactive)
GI50 (ACHN): 2.63 µM (inactive)
GI50 (BT-549): 3.18 µM (inactive)
GI50 (CAKI-1): 2.73 µM (inactive)
GI50 (CCRF-CEM): 1.95 µM (inactive)
GI50 (COLO 205): 1.45 µM (inactive)
GI50 (DU-145): 3.29 µM (inactive)
GI50 (EKVX): 2.96 µM (inactive)
GI50 (HCC 2998): 3.11 µM (inactive)
GI50 (HCT-116): 2.09 µM (inactive)
GI50 (HCT-15): 2.64 µM
GI50 (HL-60): 1.69 µM (inactive)
GI50 (HOP-62): 3.22 µM (inactive)
GI50 (HOP-92): 0.889 µM (active)
GI50 (HT-29): 2.18 µM (inactive)
GI50 (Hs-578T): 2.57 µM (inactive)
GI50 (IGROV-1): 2.99 µM (inactive)
GI50 (K562): 1.74 µM (inactive)
GI50 (KM12): 2.69 µM (inactive)
GI50 (LOX IMVI): 2.92 µM (inactive)
GI50 (M14): 3.42 µM (inactive)
GI50 (MCF7): 0.0241 µM (active)
GI50 (MDA-MB-231): 2.02 µM (inactive)
GI50 (MDA-MB-435): 2.52 µM (inactive)
GI50 (MDA-N): 2.18 µM (inactive)
GI50 (MOLT-4): 2.18 µM (inactive)
GI50 (Malme-3M): 1.73 µM (inactive)
GI50 (NCI-H226): 1.67 µM (inactive)
GI50 (NCI-H23): 1.47 µM (inactive)
GI50 (NCI-H460): 2.01 µM (inactive)
GI50 (NCI-H522): 0.764 µM (active)
GI50 (NCI/ADR-RES): 2.53 µM (inactive)
GI50 (OVCAR-3): 1.59 µM (inactive)
GI50 (OVCAR-4): 2.28 µM (inactive)
GI50 (OVCAR-5): 2.48 µM (inactive)
GI50 (OVCAR-8): 3.06 µM (inactive)
GI50 (PC-3): 2.5 µM (inactive)
GI50 (RPMI-8226): 0.426 µM (active)
GI50 (RXF 393): 3.1 µM (inactive)
GI50 (SF-268): 3.03 µM (inactive)
GI50 (SF-295): 2.05 µM (inactive)
GI50 (SF-539): 3.15 µM (inactive)
GI50 (SK-MEL-28): 3.13 µM (inactive)
GI50 (SK-MEL-2): 1.56 µM (inactive)
GI50 (SK-MEL-5): 0.544 µM (active)
GI50 (SK-OV-3): 2.86 µM (inactive)
GI50 (SN12C): 2.69 µM (inactive)
GI50 (SNB-19): 3.27 µM (inactive)
GI50 (SNB-75): 2.42 µM (inactive)
GI50 (SR): 2.62 µM (inactive)
GI50 (SW-620): 3.72 µM (inactive)
GI50 (T47D): 1.29 µM (inactive)
GI50 (TK-10): 4.95 µM (inactive)
GI50 (U-251): 1.85 µM (inactive)
GI50 (UACC-257): 2.22 µM (inactive)
GI50 (UACC-62): 0.562 µM (active)
GI50 (UO-31): 2.24 µM (inactive)

CCCCCCCCCCCOCCC1C(C(C)OCCN2CCCC2)OC2OC(C)(C)OC21 (configuration not stated)
GI50 (786-0): 2.62 µM (inactive)
GI50 (A498): 13 µM (inactive)
GI50 (A549): 4.82 µM (inactive)
GI50 (ACHN): 4.63 µM (inactive)
GI50 (BT-549): 3.13 µM (inactive)
GI50 (CAKI-1): 2.4 µM (inactive)
GI50 (CCRF-CEM): 3.6 µM (inactive)
GI50 (COLO 205): 1.92 µM (inactive)
GI50 (DU-145): 5.43 µM (inactive)
GI50 (EKVX): 4.47 µM (inactive)
GI50 (HCC 2998): 1.69 µM (inactive)
GI50 (HCT-116): 1.82 µM (inactive)
GI50 (HCT-15): 2.04 µM
GI50 (HL-60): 1.11 µM (active)
GI50 (HOP-62): 1.91 µM (inactive)
GI50 (HOP-92): 1.82 µM (inactive)
GI50 (HT-29): 1.82 µM (inactive)
GI50 (Hs-578T): 2.68 µM (inactive)
GI50 (IGROV-1): 2.42 µM (inactive)
GI50 (K562): 2.25 µM (inactive)
GI50 (KM12): 0.681 µM (active)
GI50 (LOX IMVI): 1.46 µM (inactive)
GI50 (M14): 0.869 µM (active)
GI50 (MCF7): 2.65 µM (inactive)
GI50 (MDA-MB-231): 1.85 µM (inactive)
GI50 (MDA-MB-435): 1.89 µM (inactive)
GI50 (MDA-N): 1.95 µM (inactive)
GI50 (MOLT-4): 1.68 µM (inactive)
GI50 (Malme-3M): 1.6 µM (inactive)
GI50 (NCI-H226): 8.79 µM (inactive)
GI50 (NCI-H23): 3.91 µM (inactive)
GI50 (NCI-H460): 2.07 µM (inactive)
GI50 (NCI-H522): 0.853 µM (active)
GI50 (NCI/ADR-RES): 3.41 µM (inactive)
GI50 (OVCAR-3): 4.95 µM (inactive)
GI50 (OVCAR-4): 3.98 µM (inactive)
GI50 (OVCAR-5): 3.67 µM (inactive)
GI50 (OVCAR-8): 3.13 µM (inactive)
GI50 (PC-3): 1.97 µM (inactive)
GI50 (RPMI-8226): 2.07 µM (inactive)
GI50 (RXF 393): 2.39 µM (inactive)
GI50 (SF-268): 4.59 µM (inactive)
GI50 (SF-295): 2.32 µM (inactive)
GI50 (SF-539): 2.07 µM (inactive)
GI50 (SK-MEL-28): 1.64 µM (inactive)
GI50 (SK-MEL-2): 1.76 µM (inactive)
GI50 (SK-MEL-5): 1.82 µM (inactive)
GI50 (SK-OV-3): 4.24 µM (inactive)
GI50 (SN12C): 2.53 µM (inactive)
GI50 (SNB-19): 5.56 µM (inactive)
GI50 (SNB-75): 2.47 µM (inactive)
GI50 (SR): 0.46 µM (active)
GI50 (SW-620): 1.78 µM (inactive)
GI50 (T47D): 2.24 µM (inactive)
GI50 (TK-10): 2.37 µM (inactive)
GI50 (U-251): 2.24 µM (inactive)
GI50 (UACC-257): 1.98 µM (inactive)
GI50 (UACC-62): 1.81 µM (inactive)
GI50 (UO-31): 2.51 µM (inactive)
